Paper PMC11672637, “7-O-Carboxylic Acid-Substituted 3-O-Alkyl Difluoroquercetin; An Aztreonam-Potentiating Agent Against Carbapenemase-Producing Pseudomonas aeruginosa Through Simultaneous Inhibition of Metallo-β-Lactamase and Efflux Pump” (Antibiotics, 2024)
≈ marks a conversion by molar mass, not a printed value. Read-outs that look alike come from different tables or passages of the source.

Assays:
PA-040, blaNDM = assay: MIC / checkerboard with ATM; assay type: cell-based, P. aeruginosa; conditions: Pseudomonas aeruginosa, read-out: MIC of ATM with 5, PA-040
[1] = test system: ATM-Susceptible CPPA (n = 11); assay: MIC distribution over clinical isolates; assay type: cell-based, P. aeruginosa; conditions: Pseudomonas aeruginosa
[2] = test system: wild-type P. aeruginosa (ATCC 27853); assay: Time–kill assay; assay type: cell-based; conditions: for Log CFU/mL, ATM + 5: 24 h
Method: (§1) Aliquots (50 μL) were taken from the incubation mixture at regular time intervals (t = 0, 3, 6, and 24 h), serially diluted in 0.85% NaCl solution, and plated on BAP. Bacterial colonies were counted, and the data are presented as the means of at least three independent experiments.

PA-002, blaIMP = assay: Time–kill assay; assay type: cell-based, P. aeruginosa; conditions: for Log CFU/mL, ATM + 5: 24 h
Method: as §1

## CC(C)(C)CCOc1c(-c2ccc(F)c(F)c2)oc2cc(OCC(=O)O)cc(O)c2c1=O [Compound 5, 2-((2-(3,4-Difluorophenyl)-3-(3,3-dimethylbutoxy)-5-hydroxy-4-oxo-4H-chromen-7-yl)oxy)acetic Acid]
PA-040, blaNDM; 5 at 2 mg/L
  MIC: 4 mg/L
PA-040, blaNDM; 5 at 4 mg/L
  MIC: 2 mg/L
PA-040, blaNDM; 5 at 8 mg/L
  MIC: 2 mg/L
PA-040, blaNDM; 5 at 16 mg/L
  MIC: 2 mg/L
PA-040, blaNDM; 5 at 32 mg/L
  MIC: 1 mg/L
PA-040, blaNDM; 5 at 64 mg/L
  MIC: 1 mg/L
[1]; read-out: MIC50 of ATM, 5 at 1 mg/L
  MIC50: 4 mg/L (≈ 8.92 µM)
[1]; read-out: MIC50 of ATM, 5 at 2 mg/L
  MIC50: 2 mg/L (≈ 4.46 µM)
[1]; read-out: MIC50 of ATM, 5 at 4 mg/L
  MIC50: 2 mg/L (≈ 4.46 µM)
[1]; read-out: MIC50 of ATM, 5 at 8 mg/L
  MIC50: 2 mg/L (≈ 4.46 µM)
[1]; read-out: MIC50 of ATM, 5 at 16 mg/L
  MIC50: 1 mg/L (≈ 2.23 µM)
[1]; read-out: MIC50 of ATM, 5 at 32 mg/L
  MIC50: 1 mg/L (≈ 2.23 µM)
[1]; read-out: MIC50 of ATM, 5 at 64 mg/L
  MIC50: 1 mg/L (≈ 2.23 µM)
[1]; read-out: MIC90 of ATM, 5 at 1 mg/L
  MIC90: 8 mg/L (≈ 17.8 µM)
[1]; read-out: MIC90 of ATM, 5 at 2 mg/L
  MIC90: 4 mg/L (≈ 8.92 µM)
[1]; read-out: MIC90 of ATM, 5 at 4 mg/L
  MIC90: 4 mg/L (≈ 8.92 µM)
[1]; read-out: MIC90 of ATM, 5 at 8 mg/L
  MIC90: 2 mg/L (≈ 4.46 µM)
[1]; read-out: MIC90 of ATM, 5 at 16 mg/L
  MIC90: 2 mg/L (≈ 4.46 µM)
[1]; read-out: MIC90 of ATM, 5 at 32 mg/L
  MIC90: 2 mg/L (≈ 4.46 µM)
[1]; read-out: MIC90 of ATM, 5 at 64 mg/L
  MIC90: 2 mg/L (≈ 4.46 µM)
[2]; ATM 1/2 MIC + 5 at 8 mg/L
  Diff. (ATM + 5, 24 h vs initial inoculum): −0.04 Log CFU/mL
  Diff. (ATM + 5 vs ATM only): −3.51 Log CFU/mL
  Synergistic activity, interpretation: Synergy (a ≥ 2 log10 decrease in CFU/mL for the combination of ATM and 5 compared to ATM alone after 24 h of incubation)
  Log CFU/mL, ATM + 5: 5.80 Log CFU/mL
[2]; ATM 1/4 MIC + 5 at 8 mg/L
  Diff. (ATM + 5, 24 h vs initial inoculum): −0.04 Log CFU/mL
  Diff. (ATM + 5 vs ATM only): −3.77 Log CFU/mL
  Synergistic activity, interpretation: Synergy (a ≥ 2 log10 decrease in CFU/mL for the combination of ATM and 5 compared to ATM alone after 24 h of incubation)
  Log CFU/mL, ATM + 5: 5.80 Log CFU/mL
[2]; ATM 1 MIC + 5 at 8 mg/L
  Diff. (ATM + 5, 24 h vs initial inoculum): −5.57 Log CFU/mL
  Diff. (ATM + 5 vs ATM only): −7.75 Log CFU/mL
  Synergistic activity, interpretation: Synergy (a ≥ 2 log10 decrease in CFU/mL for the combination of ATM and 5 compared to ATM alone after 24 h of incubation)
  Log CFU/mL, ATM + 5: 0.27 Log CFU/mL
[2]; ATM 2 MIC + 5 at 8 mg/L
  Diff. (ATM + 5, 24 h vs initial inoculum): −5.84 Log CFU/mL
  Diff. (ATM + 5 vs ATM only): −0.17 Log CFU/mL
  Log CFU/mL, ATM + 5: 0.00 Log CFU/mL
PA-002, blaIMP; ATM 1/2 MIC + 5 at 8 mg/L
  Diff. (ATM + 5, 24 h vs initial inoculum): 1.21 Log CFU/mL
  Diff. (ATM + 5 vs ATM only): −2.36 Log CFU/mL
  Synergistic activity, interpretation: Synergy (a ≥ 2 log10 decrease in CFU/mL for the combination of ATM and 5 compared to ATM alone after 24 h of incubation)
  Log CFU/mL, ATM + 5: 6.66 Log CFU/mL
PA-002, blaIMP; ATM 1/4 MIC + 5 at 8 mg/L
  Diff. (ATM + 5, 24 h vs initial inoculum): 2.26 Log CFU/mL
  Diff. (ATM + 5 vs ATM only): −1.77 Log CFU/mL
  Log CFU/mL, ATM + 5: 7.71 Log CFU/mL
PA-002, blaIMP; ATM 1 MIC + 5 at 8 mg/L
  Diff. (ATM + 5, 24 h vs initial inoculum): −2.42 Log CFU/mL
  Diff. (ATM + 5 vs ATM only): −5.12 Log CFU/mL
  Synergistic activity, interpretation: Synergy (a ≥ 2 log10 decrease in CFU/mL for the combination of ATM and 5 compared to ATM alone after 24 h of incubation)
  Log CFU/mL, ATM + 5: 3.03 Log CFU/mL
